Reference: patent US20230312587A1, “PTERIDINONE COMPOUNDS AND USES THEREOF” (Vertex Pharmaceutical Incorporated, priority 2018, published 2023)

System: β-catenin-TCF-mediated reporter transcription activity in Colo 205 cells
Assay: Colo 205 reporter assay (TCF/LEF luciferase)
Assay type: cell-based
Conditions: Homo sapiens, COLO 205, 5 h, Colo 205 TCF/LEF luciferase reporter, five hours after addition of compound; read-out: TCF reporter Colo205 IC50
In short: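 Luciferase signal from a TCF/LEF-driven reporter, stably integrated in Colo 205 colon cancer cells, was measured 5 h after compound addition.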

Compared with `Cc1nc(N[C@H]2C[C@@H](Nc3nccc(C(F)(F)F)n3)C2)nc2c1NC(=O)[C@H](C(C)C)N2C` [Compound 527, (S)-7-isopropyl-4,8-dimethyl-2-((cis-3-((4-(trifluoromethyl)pyrimidin-2-yl)amino)cyclobutyl)amino)-7,8-dihydropteridin-6(5H)-one], `Cc1nc(N[C@H]2C[C@H](Nc3nccc(C(F)(F)F)n3)C2)nc2c1NC(=O)[C@H](C(C)C)N2C` [Compound 529, (S)-7-isopropyl-4,8-dimethyl-2-((trans-3-((4-(trifluoromethyl)pyrimidin-2-yl)amino)cyclobutyl)amino)-7,8-dihydropteridin-6(5H)-one] is higher in IC50: 300 to 1000 nM for the first, 1000 to 5000 nM for the second.

`Cc1nc(N[C@H]2C[C@H](Nc3cc(C(F)(F)F)ncn3)C2)nc2c1NC(=O)[C@H](C(C)C)N2C` [Compound 530, (S)-7-isopropyl-4,8-dimethyl-2-((trans-3-((6-(trifluoromethyl)pyrimidin-4-yl)amino)cyclobutyl)amino)-7,8-dihydropteridin-6(5H)-one] and `Cc1nc(N[C@H]2C[C@@H](Nc3cc(C(F)(F)F)ncn3)C2)nc2c1NC(=O)[C@H](C)N2C` [Compound 552, (S)-4,7,8-trimethyl-2-((cis-3-((6-(trifluoromethyl)pyrimidin-4-yl)amino)cyclobutyl)amino)-7,8-dihydropteridin-6(5H)-one] cannot be ordered by IC50: ≥ 5000 nM for the first, ≥ 5000 nM for the second.

`Cc1nc(N[C@H]2C[C@H](Nc3cccc(C(F)(F)F)n3)C2)nc2c1NC(=O)[C@H](C(C)C)N2C` [Compound 531, (S)-7-isopropyl-4,8-dimethyl-2-((trans-3-((6-(trifluoromethyl)pyridin-2-yl)amino)cyclobutyl)amino)-7,8-dihydropteridin-6(5H)-one] and `Cc1nc(N[C@H]2C[C@@H](Nc3cccc(C(F)(F)F)n3)C2)nc2c1NC(=O)[C@H](C(C)C)N2C` [Compound 532, (S)-7-isopropyl-4,8-dimethyl-2-((cis-3-((6-(trifluoromethyl)pyridin-2-yl)amino)cyclobutyl)amino)-7,8-dihydropteridin-6(5H)-one] fall in the same range of IC50: 300 to 1000 nM for the first, 300 to 1000 nM for the second.

Compared with `Cc1nc(N[C@H]2C[C@H](Nc3ccc(C(F)(F)F)cn3)C2)nc2c1NC(=O)[C@H](C(C)C)N2C` [Compound 533, (S)-7-isopropyl-4,8-dimethyl-2-((trans-3-((5-(trifluoromethyl)pyridin-2-yl)amino)cyclobutyl)amino)-7,8-dihydropteridin-6(5H)-one], `Cc1nc(N[C@H]2C[C@@H](Nc3ccc(C(F)(F)F)cn3)C2)nc2c1NC(=O)[C@H](C(C)C)N2C` [Compound 534, (S)-7-isopropyl-4,8-dimethyl-2-((cis-3-((5-(trifluoromethyl)pyridin-2-yl)amino)cyclobutyl)amino)-7,8-dihydropteridin-6(5H)-one] is lower in IC50: 300 to 1000 nM for the first, < 300 nM for the second.

`Cc1nc(N[C@H]2C[C@H](NCc3cc(F)c(F)c(F)c3)C2)nc2c1NC(=O)[C@H](C(C)C)N2C` [Compound 535, (S)-7-isopropyl-4,8-dimethyl-2-((trans-3-((3,4,5-trifluorobenzyl)amino)cyclobutyl)amino)-7,8-dihydropteridin-6(5H)-one] and `Cc1nc(N[C@H]2C[C@@H](NCc3cc(F)c(F)c(F)c3)C2)nc2c1NC(=O)[C@H](C(C)C)N2C` [Compound 536, (S)-7-isopropyl-4,8-dimethyl-2-((cis-3-((3,4,5-trifluorobenzyl)amino)cyclobutyl)amino)-7,8-dihydropteridin-6(5H)-one] cannot be ordered by IC50: < 300 nM for the first, < 300 nM for the second.

`Cc1nc(N[C@H]2C[C@H](NC(=O)N(C)C3CCC(F)(F)CC3)C2)nc2c1NC(=O)[C@H](C(C)C)N2C` [Compound 537, 1-(4,4-difluorocyclohexyl)-3-(trans-3-(((S)-7-isopropyl-4,8-dimethyl-6-oxo-5,6,7,8-tetrahydropteridin-2-yl)amino)cyclobutyl)-1-methylurea] and `Cc1nc(N[C@H]2C[C@@H](NC(=O)N(C)C3CCC(F)(F)CC3)C2)nc2c1NC(=O)[C@H](C(C)C)N2C` [Compound 538, 1-(4,4-difluorocyclohexyl)-3-(cis-3-(((S)-7-isopropyl-4,8-dimethyl-6-oxo-5,6,7,8-tetrahydropteridin-2-yl)amino)cyclobutyl)-1-methylurea] fall in the same range of IC50: 1000 to 5000 nM for the first, 1000 to 5000 nM for the second.

Compared with `Cc1nc(N[C@H]2C[C@@H](Nc3ccnc(C(F)(F)F)n3)C2)nc2c1NC(=O)[C@H](C(C)C)N2C` [Compound 539, (S)-7-isopropyl-4,8-dimethyl-2-((cis-3-((2-(trifluoromethyl)pyrimidin-4-yl)amino)cyclobutyl)amino)-7,8-dihydropteridin-6(5H)-one], `Cc1nc(N[C@H]2C[C@H](Nc3ccnc(C(F)(F)F)n3)C2)nc2c1NC(=O)[C@H](C(C)C)N2C` [Compound 540, (S)-7-isopropyl-4,8-dimethyl-2-((trans-3-((2-(trifluoromethyl)pyrimidin-4-yl)amino)cyclobutyl)amino)-7,8-dihydropteridin-6(5H)-one] is higher in IC50: 300 to 1000 nM for the first, 1000 to 5000 nM for the second.

First: Cc1nc(NC2CN(C(=O)C3CCC(F)(F)CC3)C2)nc2c1NC(=O)[C@H](C(C)C)N2C [Compound 543, (S)-2-((1-(4,4-difluorocyclohexane-1-carbonyl)azetidin-3-yl)amino)-7-isopropyl-4,8-dimethyl-7,8-dihydropteridin-6(5H)-one]
Second: Cc1nc(NC2CN(C(=O)c3ccc(F)cc3)C2)nc2c1NC(=O)[C@H](C(C)C)N2C [Compound 548, (S)-2-((1-(4-fluorobenzoyl)azetidin-3-yl)amino)-7-isopropyl-4,8-dimethyl-7,8-dihydropteridin-6(5H)-one]
The IC50 of the first is higher: 1000 to 5000 nM for the first, 300 to 1000 nM for the second. The second is the more potent here.

Compared with `Cc1nc(NC2CN(C(=O)Cc3cc(F)c(F)c(F)c3)C2)nc2c1NC(=O)[C@H](C(C)C)N2C` [Compound 544, (S)-7-isopropyl-4,8-dimethyl-2-((1-(2-(3,4,5-trifluorophenyl)acetyl)azetidin-3-yl)amino)-7,8-dihydropteridin-6(5H)-one], `Cc1nc(NC2CN(C(=O)Nc3cc(F)c(F)c(F)c3)C2)nc2c1NC(=O)[C@H](C(C)C)N2C` [Compound 564, (7S)-3-((7-isopropyl-4,8-dimethyl-6-oxo-5,6,7,8-tetrahydropteridin-2-yl)amino)-N-(3,4,5-trifluorophenyl)azetidine-1-carboxamide] is higher in IC50: < 300 nM for the first, 1000 to 5000 nM for the second. The first is the more potent here.

`Cc1nc(N[C@H]2CCc3nn(Cc4ccc(C(F)(F)F)nc4)cc32)nc2c1NC(=O)[C@H](C)N2C` [Compound 546, (7S)-4,7,8-trimethyl-2-(((S)-2-((6-(trifluoromethyl)pyridin-3-yl)methyl)-2,4,5,6-tetrahydrocyclopenta[c]pyrazol-4-yl)amino)-7,8-dihydropteridin-6(5H)-one] and `Cc1nc(N[C@@H]2CCc3nn(Cc4ccc(C(F)(F)F)nc4)cc32)nc2c1NC(=O)[C@H](C)N2C` [Compound 547, (7S)-4,7,8-trimethyl-2-(((R)-2-((6-(trifluoromethyl)pyridin-3-yl)methyl)-2,4,5,6-tetrahydrocyclopenta[c]pyrazol-4-yl)amino)-7,8-dihydropteridin-6(5H)-one] cannot be ordered by IC50: ≥ 5000 nM for the first, 1000 to 5000 nM for the second.

`Cc1nc(NCc2cnn(Cc3ccc(Cl)nc3)c2)nc2c1NC(=O)[C@H](CC(C)C)N2C` [Compound 550, (S)-2-(((1-((6-chloropyridin-3-yl)methyl)-1H-pyrazol-4-yl)methyl)amino)-7-isobutyl-4,8-dimethyl-7,8-dihydropteridin-6(5H)-one] and `Cc1nc(NCc2cnn(Cc3ccc(C(F)(F)F)nc3)c2)nc2c1NC(=O)[C@H](CC(C)C)N2C` [Compound 563, (S)-7-isobutyl-4,8-dimethyl-2-(((1-((6-(trifluoromethyl)pyridin-3-yl)methyl)-1H-pyrazol-4-yl)methyl)amino)-7,8-dihydropteridin-6(5H)-one] cannot be ordered by IC50: < 300 nM for the first, < 300 nM for the second.

`Cc1nc(N[C@H]2C[C@H](NC(=O)Cn3ccc(C(F)(F)F)n3)C2)nc2c1NC(=O)[C@H](C(C)C)N2C` [Compound 554, N-(trans-3-(((S)-7-isopropyl-4,8-dimethyl-6-oxo-5,6,7,8-tetrahydropteridin-2-yl)amino)cyclobutyl)-2-(3-(trifluoromethyl)-1H-pyrazol-1-yl)acetamide] and `Cc1nc(N[C@H]2C[C@@H](NC(=O)Cc3ccc(C(F)(F)F)nc3)C2)nc2c1NC(=O)[C@H](C(C)C)N2C` [Compound 559, N-(cis-3-(((S)-7-isopropyl-4,8-dimethyl-6-oxo-5,6,7,8-tetrahydropteridin-2-yl)amino)cyclobutyl)-2-(6-(trifluoromethyl)pyridin-3-yl)acetamide] fall in the same range of IC50: 1000 to 5000 nM for the first, 1000 to 5000 nM for the second.

`Cc1nc(N[C@H]2C[C@H](Nc3ccc(C(F)(F)F)nn3)C2)nc2c1NC(=O)[C@H](C(C)C)N2C` [Compound 555, (S)-7-isopropyl-4,8-dimethyl-2-((trans-3-((6-(trifluoromethyl)pyridazin-3-yl)amino)cyclobutyl)amino)-7,8-dihydropteridin-6(5H)-one] and `Cc1nc(N[C@H]2C[C@H](Nc3cnc(C(F)(F)F)cn3)C2)nc2c1NC(=O)[C@H](C(C)C)N2C` [Compound 558, (S)-7-isopropyl-4,8-dimethyl-2-((trans-3-((5-(trifluoromethyl)pyrazin-2-yl)amino)cyclobutyl)amino)-7,8-dihydropteridin-6(5H)-one] fall in the same range of IC50: 1000 to 5000 nM for the first, 1000 to 5000 nM for the second.

Compared with `Cc1nc(N[C@H]2C[C@H](NC(=O)Cc3ccc(C(F)(F)F)nc3)C2)nc2c1NC(=O)[C@H](C(C)C)N2C` [Compound 560, N-(trans-3-(((S)-7-isopropyl-4,8-dimethyl-6-oxo-5,6,7,8-tetrahydropteridin-2-yl)amino)cyclobutyl)-2-(6-(trifluoromethyl)pyridin-3-yl)acetamide], `Cc1nc(N[C@H]2C[C@@H](Nc3cc(C(F)(F)F)ccn3)C2)nc2c1NC(=O)[C@H](C(C)C)N2C` [Compound 561, (S)-7-isopropyl-4,8-dimethyl-2-((cis-3-((4-(trifluoromethyl)pyridin-2-yl)amino)cyclobutyl)amino)-7,8-dihydropteridin-6(5H)-one] is lower in IC50: ≥ 5000 nM for the first, < 300 nM for the second. The second is the more potent here.

`Cc1nc(N[C@H]2C[C@@H](Nc3ccc(C(F)(F)F)cn3)C2)nc2c1NC(=O)[C@H](C)N2C` [Compound 562, (S)-4,7,8-trimethyl-2-((cis-3-((5-(trifluoromethyl)pyridin-2-yl)amino)cyclobutyl)amino)-7,8-dihydropteridin-6(5H)-one] was tested, and the IC50 was 300 to 1000 nM.
